In the NIST ThermoML archive (doi:10.1021/je700619q):
± gives the expanded uncertainty stated by the source.

Key:
[1] = xn = mol fraction of the nth substance listed; conditions: 101 kPa, Liquid
[2] = 101 kPa, Liquid
[3] = Boiling temperature at pressure P; conditions: 101 kPa; Liquid; Distillation

CCCCCCCCCCO [decan-1-ol] + CCNCC
[1], x2 = 0
Conditions	mass density [kg/m3]	speed of sound [m/s]	viscosity [mPa·s]
293 K	830.1 ± 5.9	1408 ± 22	13.41 ± 0.96
303 K	822.1 ± 6.6	1375.2 ± 22	9.262 ± 0.7
313 K	815.7 ± 7.2	1344.8 ± 22	6.515 ± 0.53

CCCCCCCCCCO [decan-1-ol]
[2]
Conditions	mass density [kg/m3]	speed of sound [m/s]	viscosity [mPa·s]
293 K	830.1 ± 5.9	1408 ± 22	13.41 ± 0.96
303 K	822.1 ± 6.6	1375.2 ± 22	9.262 ± 0.7
313 K	815.7 ± 7.2	1344.8 ± 22	6.515 ± 0.53

Conditions	Boiling temperature at pressure P [°C]
[3]	229.80 ± 0.2

CCNCC [diethylamine] + CCCCCCCCCCO
[1]
Conditions	mass density, 293 K [kg/m3]	mass density, 303 K [kg/m3]	mass density, 313 K [kg/m3]	speed of sound, 293 K [m/s]	speed of sound, 303 K [m/s]	speed of sound, 313 K [m/s]	viscosity, 293 K [mPa·s]	viscosity, 303 K [mPa·s]	viscosity, 313 K [mPa·s]
x1 = 0.0989	828.2 ± 5.9	820.7 ± 6.5	811.5 ± 7.2	1383.2 ± 22	1372.4 ± 22	1332.8 ± 22	11.04 ± 0.81	7.825 ± 0.61	5.532 ± 0.47
x1 = 0.1963	824.8 ± 5.8	814.6 ± 6.5	806.3 ± 7.1	1352 ± 22	1350 ± 22	1326 ± 21	8.974 ± 0.68	6.352 ± 0.52	4.522 ± 0.4
x1 = 0.3062	818.1 ± 5.8	810 ± 6.4	803.7 ± 7.1	1347.2 ± 22	1340 ± 22	1316 ± 21	7.105 ± 0.57	4.977 ± 0.43	3.558 ± 0.32
x1 = 0.4062	814.4 ± 5.7	808.4 ± 6.4	802.1 ± 7.1	1333.6 ± 22	1326 ± 21	1297.2 ± 21	5.423 ± 0.46	3.524 ± 0.31	2.793 ± 0.25
x1 = 0.4898	799 ± 5.6	794.2 ± 6.3	788.9 ± 7	1321.8 ± 21	1314 ± 21	1290.8 ± 21	3.948 ± 0.35	2.857 ± 0.26	2.244 ± 0.21
x1 = 0.5973	795.6 ± 5.5	790.7 ± 6.2	782.9 ± 6.9	1310.4 ± 21	1302.4 ± 21	1274.8 ± 21	2.609 ± 0.24	2.015 ± 0.19	1.631 ± 0.15
x1 = 0.6708	785.4 ± 5.4	779.9 ± 6.1	773.7 ± 6.8	1302.4 ± 21	1295.6 ± 21	1258.4 ± 21	1.925 ± 0.18	1.652 ± 0.15	1.257 ± 0.12
x1 = 0.7388	779.4 ± 5.4	773.3 ± 6.1	769.7 ± 6.8	1293.6 ± 21	1278.8 ± 21	1238.4 ± 20	1.43 ± 0.14	1.253 ± 0.12	0.9795 ± 0.097
x1 = 0.8012	770.2 ± 5.3	763.6 ± 6	755.5 ± 6.6	1288.8 ± 21	1266.4 ± 21	1212 ± 20	1.067 ± 0.1	0.9298 ± 0.093	0.7247 ± 0.075
x1 = 0.8562	759.5 ± 5.2	753.7 ± 5.9	745.6 ± 6.5	1247.2 ± 20	1216.8 ± 20	1164.8 ± 19	0.7924 ± 0.081	0.689 ± 0.072	0.5424 ± 0.059
x1 = 0.9031	741.4 ± 5	737.6 ± 5.7	728.2 ± 6.3	1211.2 ± 20	1176 ± 20	1123.2 ± 19	0.6052 ± 0.065	0.5352 ± 0.059	0.4368 ± 0.05
x1 = 0.9601	720.7 ± 4.8	709.2 ± 5.4	694.8 ± 6	1173.2 ± 20	1130.4 ± 19	1082 ± 18	0.4396 ± 0.051	0.3609 ± 0.044	0.3265 ± 0.041
x1 = 1	707.6 ± 4.7	693.6 ± 5.3	678.4 ± 5.8	1140.8 ± 19	1089.6 ± 18	1045 ± 18	0.3212 ± 0.04	0.275 ± 0.036	0.2577 ± 0.035

CCNCC [diethylamine]
[2]
Conditions	mass density [kg/m3]	speed of sound [m/s]	viscosity [mPa·s]
293 K	707.6 ± 4.7	1140.8 ± 19	0.3212 ± 0.04
303 K	693.6 ± 5.3	1089.6 ± 18	0.275 ± 0.036
313 K	678.4 ± 5.8	1045 ± 18	0.2577 ± 0.035

Conditions	Boiling temperature at pressure P [°C]
[3]	55.30 ± 0.2
